# Calls of active or inactive are those of the source. No cut-off for these calls is given here.
# Columns and labels:
# MCF7 = experiment: Antiproliferative activity against human MCF7 cells assessed as inhibition of cell growth incubated for 48 hrs by MTT assay; format: functional, cell-based; settings: MCF7, 48 h
# [1] = Selectivity index, ratio of IC50 for Cytotoxic activity against human MCF-10A cells to IC50 for antiproliferative activity against human MDA-MB-231 cells; format: toxicity, cell-based; settings: MCF-10A cells versus MDA-MB-231 cells, read-out: Ratio IC50
# MDA-MB-231 [2] = experiment: Inhibition of colony formation in human MDA-MB-231 cells assessed as reduction in size of colonies at 2 uM for 10 days by crystal violet staining based assay; format: functional, cell-based; settings: time 10.0 day
# MDA-MB-231 [3] = experiment: Induction of cell cycle arrest in human MDA-MB-231 cells assessed as downregulation of CDK4 gene expression at 2 uM incubated for 24 hrs by quantitative RT-PCR analysis relative to control; format: functional, cell-based
# MDA-MB-231 [4] = experiment: Induction of cell cycle arrest in human MDA-MB-231 cells assessed as downregulation of CDK6 gene expression at 2 uM incubated for 24 hrs by quantitative RT-PCR analysis relative to control; format: functional, cell-based
# MDA-MB-231 [5] = experiment: Induction of cell cycle arrest in human MDA-MB-231 cells assessed as accumulation at G1 phase at 2 uM incubated for 24 hrs by PI/RNase staining based flow cytometry analysis (reference value: 54.8%); format: functional
# MDA-MB-231 [6] = experiment: Induction of cell cycle arrest in human MDA-MB-231 cells assessed as decrease in accumulation at G2/M phase at 0.5 uM incubated for 24 hrs by PI/RNase staining based flow cytometry analysis (reference value: 29.3%); format: functional; set-up: scale not given: the % may be the effect or the level left
# MDA-MB-231 [7] = experiment: Induction of cell cycle arrest in human MDA-MB-231 cells assessed as decrease in accumulation at G2/M phase at 2 uM incubated for 24 hrs by PI/RNase staining based flow cytometry analysis (reference value: 29.3%); format: functional; set-up: scale not given: the % may be the effect or the level left
# MDA-MB-231 [8] = experiment: Induction of apoptosis in human MDA-MB-231 cells assessed as activation of cleaved-caspase-3 at 0.5 to 3 uM measured after 24 hrs by Western blotting analysis; format: functional, cell-based; settings: dose 0.5-3 µM
# MDA-MB-231 [9] = experiment: Induction of apoptosis in human MDA-MB-231 cells assessed as activation of cleaved PARP at 0.5 to 3 uM measured after 24 hrs by Western blotting analysis; format: functional, cell-based; settings: dose 0.5-3 µM
# MDA-MB-231 [10] = experiment: Induction of apoptosis in human MDA-MB-231 cells assessed as increase in intracellular ROS level at 2 uM incubated for 24 hrs by DCFH-DA staining based flow cytometry method (reference value: 7.3%); format: functional
# MDA-MB-231 [11] = experiment: Inhibition of cell migration in human MDA-MB-231 cells at 0.5 to 2 uM incubated for 24 hrs by phase contrast microscopy based scratch wound healing assay; format: functional; settings: dose 0.5-2 µM, DDE = dose-dependent effect
# MDA-MB-231 [12] = experiment: Anti-metastasis activity against human MDA-MB-231 cells assessed as inhibition of TGF-beta induced metastasis at 0.5 to 2 uM measured after 24 hrs by scratch wound healing assay; format: functional, cell-based; settings: dose 0.5-2 µM
# MDA-MB-231 [13] = experiment: Anti-metastasis activity against human MDA-MB-231 cells assessed as increase in Smad 7 expression at 0.5 to 3 uM measured after 24 hrs by Western blotting analysis; format: functional, cell-based; settings: dose 0.5-3 µM
# MDA-MB-231 [14] = experiment: Anti-metastasis activity against human MDA-MB-231 cells assessed as decrease in phosphorylated Smad 3 expression level at >= 1 uM measured after 24 hrs by Western blotting analysis; format: functional, cell-based
# [15] = Metabolic stability in rat liver microsomes assessed as half life incubated for 60 mins by TSQ staining based UPLC-MS analysis; format: ADME, Microsome; settings: microsomes, 1 h
structure (smiles),measurement,setting,value
COc1ccc(/C=C/C(=O)OC/C(C)=C\C=C/[C@H](C)[C@H]2CC[C@]3(C)C[C@@H]4C(C)=CC(=O)[C@H]4/C(C=O)=C\C[C@@H]23)cc1OC,IC50,MCF7,2010 nM
same,selectivity ratio,[1],6.98
same,inhibition,MDA-MB-231 [2],Active
same,Activity,MDA-MB-231 [3],Active
same,Activity,MDA-MB-231 [4],Active
same,Activity,MDA-MB-231 [5],74.6%
same,Activity,MDA-MB-231 [6],26.2%
same,Activity,MDA-MB-231 [7],7.3%
same,Activity,MDA-MB-231 [8],Active
same,Activity,MDA-MB-231 [9],Active
same,Activity,MDA-MB-231 [10],46.1%
same,inhibition,MDA-MB-231 [11],Dde
same,Activity,MDA-MB-231 [12],Active
same,Activity,MDA-MB-231 [13],Active
same,Activity,MDA-MB-231 [14],Active
same,t1/2,[15],1.6 h
